{
  "source": "patent US20170333571A1",
  "about": "“Targeted Delivery Platform for Delivery of Therapeutics” (The Regents of the University of California, priority 2014, published 2017)",
  "origin": "cited, not measured here",
  "tested_on": "colitis-induced inflammation",
  "details": "exogenous administration, rats and mice",
  "note": "No end group written: not given here.",
  "data": [
    {"substance": "Ucn1: small peptide (~38 aa), Urocortin 1 (DNPSLSIDLTFHLLRTLLELARTQSQRERAEQNRIIFDSV; ends and bridges not checked; also: 5FAM label, position not given here (in delivery test); UniProt P55089 83-122, looked up)", "values": [
      {"measurement": "colitis-induced inflammation", "value": "reduces colitis-induced inflammation"}
    ]}
  ]
}
